Laboratory results taken from doi:10.1101/2023.03.24.534094v2 (biorxiv, 2023).
Read-outs that look alike come from different tables or passages of the source. Values belong to the compound of their own block, whether it stands above or below them.

Experiments:
Assay in all cases: biochemical
[1] = target: PIM1 (Homo sapiens, UniProt P11309)
[2] = target: T1, NEK1 (Homo sapiens, UniProt Q96PY6)
T1 sequence (Q96PY6 1-1258): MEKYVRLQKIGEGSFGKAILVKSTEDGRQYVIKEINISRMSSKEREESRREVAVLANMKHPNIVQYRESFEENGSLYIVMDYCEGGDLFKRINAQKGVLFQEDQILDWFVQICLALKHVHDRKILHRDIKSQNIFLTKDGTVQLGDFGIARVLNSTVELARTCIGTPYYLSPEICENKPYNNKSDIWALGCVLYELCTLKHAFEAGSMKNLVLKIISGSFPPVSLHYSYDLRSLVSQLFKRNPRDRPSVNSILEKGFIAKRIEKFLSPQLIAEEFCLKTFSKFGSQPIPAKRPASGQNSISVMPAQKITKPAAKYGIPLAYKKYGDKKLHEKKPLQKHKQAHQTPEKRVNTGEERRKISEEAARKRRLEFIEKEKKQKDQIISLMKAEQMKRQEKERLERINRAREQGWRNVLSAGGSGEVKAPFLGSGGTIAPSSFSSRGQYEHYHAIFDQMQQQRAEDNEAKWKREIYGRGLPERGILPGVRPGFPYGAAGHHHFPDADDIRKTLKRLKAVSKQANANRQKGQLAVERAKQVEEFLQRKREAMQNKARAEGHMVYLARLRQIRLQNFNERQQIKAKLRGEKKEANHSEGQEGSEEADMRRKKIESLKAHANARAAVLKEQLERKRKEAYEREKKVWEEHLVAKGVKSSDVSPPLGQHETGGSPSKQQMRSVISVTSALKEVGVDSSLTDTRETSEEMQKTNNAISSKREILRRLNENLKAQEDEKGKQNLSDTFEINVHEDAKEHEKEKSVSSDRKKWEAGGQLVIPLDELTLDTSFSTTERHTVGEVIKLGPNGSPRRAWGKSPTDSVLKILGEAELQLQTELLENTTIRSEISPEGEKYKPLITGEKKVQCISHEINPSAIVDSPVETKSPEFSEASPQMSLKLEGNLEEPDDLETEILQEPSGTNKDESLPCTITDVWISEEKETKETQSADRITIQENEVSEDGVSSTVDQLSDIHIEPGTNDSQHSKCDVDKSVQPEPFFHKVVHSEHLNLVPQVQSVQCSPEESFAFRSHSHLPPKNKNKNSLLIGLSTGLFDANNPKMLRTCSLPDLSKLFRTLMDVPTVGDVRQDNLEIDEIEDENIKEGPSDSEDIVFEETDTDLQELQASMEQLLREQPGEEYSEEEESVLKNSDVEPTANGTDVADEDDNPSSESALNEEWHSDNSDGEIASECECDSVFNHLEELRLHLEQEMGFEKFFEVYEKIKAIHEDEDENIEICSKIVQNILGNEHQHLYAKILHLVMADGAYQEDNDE

[3] = target: T2, CaMK4 (Homo sapiens, UniProt Q16566)
T2 sequence (Q16566 1-473): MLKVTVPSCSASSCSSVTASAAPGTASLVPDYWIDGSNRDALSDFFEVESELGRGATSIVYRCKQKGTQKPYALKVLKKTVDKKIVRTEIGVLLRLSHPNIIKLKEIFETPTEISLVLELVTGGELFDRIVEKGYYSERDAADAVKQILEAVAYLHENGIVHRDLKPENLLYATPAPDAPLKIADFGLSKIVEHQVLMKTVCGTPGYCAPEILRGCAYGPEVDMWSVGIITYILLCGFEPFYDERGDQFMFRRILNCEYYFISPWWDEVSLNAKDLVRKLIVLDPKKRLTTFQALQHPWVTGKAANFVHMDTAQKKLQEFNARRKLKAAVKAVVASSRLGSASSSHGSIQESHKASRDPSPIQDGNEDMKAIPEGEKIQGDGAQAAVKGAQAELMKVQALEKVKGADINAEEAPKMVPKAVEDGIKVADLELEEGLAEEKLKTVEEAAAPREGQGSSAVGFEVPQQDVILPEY

[4] = target: BIKE (Homo sapiens, UniProt Q9NSY1)
Sequence of BIKE (Q9NSY1 whole entry): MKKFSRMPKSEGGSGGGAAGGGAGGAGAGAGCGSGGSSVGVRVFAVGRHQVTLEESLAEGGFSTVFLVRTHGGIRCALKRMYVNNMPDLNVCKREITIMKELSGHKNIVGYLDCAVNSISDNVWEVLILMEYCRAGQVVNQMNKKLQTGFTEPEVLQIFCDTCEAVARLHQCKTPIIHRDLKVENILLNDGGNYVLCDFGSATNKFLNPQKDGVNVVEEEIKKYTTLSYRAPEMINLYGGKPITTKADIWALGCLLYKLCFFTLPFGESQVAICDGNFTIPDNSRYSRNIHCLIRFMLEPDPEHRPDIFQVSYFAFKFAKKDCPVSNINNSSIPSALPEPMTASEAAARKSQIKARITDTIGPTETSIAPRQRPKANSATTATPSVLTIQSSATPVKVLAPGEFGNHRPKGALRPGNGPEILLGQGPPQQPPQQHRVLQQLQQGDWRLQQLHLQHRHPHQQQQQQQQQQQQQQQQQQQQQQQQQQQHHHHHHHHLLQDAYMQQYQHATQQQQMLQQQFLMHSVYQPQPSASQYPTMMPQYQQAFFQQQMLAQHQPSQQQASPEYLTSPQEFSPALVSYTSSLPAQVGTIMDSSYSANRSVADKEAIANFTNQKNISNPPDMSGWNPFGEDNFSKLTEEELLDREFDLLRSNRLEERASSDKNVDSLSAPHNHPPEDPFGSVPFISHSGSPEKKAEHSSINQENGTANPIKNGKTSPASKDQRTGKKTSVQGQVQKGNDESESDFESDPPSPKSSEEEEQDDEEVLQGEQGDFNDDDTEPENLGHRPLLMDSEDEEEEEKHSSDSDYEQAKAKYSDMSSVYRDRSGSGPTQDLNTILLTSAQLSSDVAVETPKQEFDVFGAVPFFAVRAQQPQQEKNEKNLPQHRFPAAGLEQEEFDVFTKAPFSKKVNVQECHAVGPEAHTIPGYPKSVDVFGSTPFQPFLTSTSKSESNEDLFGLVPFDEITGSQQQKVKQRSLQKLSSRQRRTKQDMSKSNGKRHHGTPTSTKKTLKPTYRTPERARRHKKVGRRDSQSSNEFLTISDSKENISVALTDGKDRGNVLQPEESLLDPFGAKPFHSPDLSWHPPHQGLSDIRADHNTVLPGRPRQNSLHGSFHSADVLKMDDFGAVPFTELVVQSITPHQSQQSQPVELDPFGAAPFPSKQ

Sequence of PIM1 (P11309 whole entry): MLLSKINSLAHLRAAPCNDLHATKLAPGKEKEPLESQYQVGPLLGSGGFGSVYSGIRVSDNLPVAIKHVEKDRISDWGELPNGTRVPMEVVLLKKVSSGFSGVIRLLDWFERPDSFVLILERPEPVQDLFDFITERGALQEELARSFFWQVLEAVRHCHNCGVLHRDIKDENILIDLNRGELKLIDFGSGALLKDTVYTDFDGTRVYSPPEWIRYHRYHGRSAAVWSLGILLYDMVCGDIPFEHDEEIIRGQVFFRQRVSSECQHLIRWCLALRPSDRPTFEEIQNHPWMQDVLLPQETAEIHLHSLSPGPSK

ΔTm at 10 µM ([1]; read-out: dTm 11): 0.6 °C
ΔTm at 10 µM ([2]; read-out: dTm 11): 0.1 °C
ΔTm at 10 µM ([3]; read-out: dTm 11): 0.1 °C
ΔTm at 10 µM ([4]; read-out: dTm 11): 1 °C
SMILES: CNc1ncc2cc(-c3cc(Br)ccc3Br)c(=O)n(CCCCN)c2n1 [compound 11, 8-(4-Aminobutyl)-6-(2,5-dibromophenyl)-2-(methylamino)pyrido[2,3-d]pyrimidin-7(8H)-one]

ΔTm at 10 µM ([1]; read-out: dTm 10): 0.8 °C
ΔTm at 10 µM ([2]; read-out: dTm 10): 0.1 °C
ΔTm at 10 µM ([3]; read-out: dTm 10): 0.1 °C
ΔTm at 10 µM ([4]; read-out: dTm 10): 1.1 °C
SMILES: CNc1ncc2cc(-c3cc(Cl)ccc3Br)c(=O)n(CCCCN)c2n1 [compound 10, 8-(4-Aminobutyl)-6-(2-bromo-5-chlorophenyl)-2-(methylamino)pyrido[2,3-d]pyrimidin-7(8H)-one]

Continued, compound first:

SMILES: CNc1ncc2cc(-c3cc(F)c(-c4cccc(C)n4)cc3F)c(=O)n(CCCCN)c2n1 [compound 12, 8-(4-Aminobutyl)-6-(2,5-difluoro-4-(6-methylpyridin-2-yl)phenyl)-2-(methylamino)pyrido[2,3-d]pyrimidin-7(8H)-one]
ΔTm at 10 µM ([1]; read-out: dTm 12): 0.8 °C
ΔTm at 10 µM ([2]; read-out: dTm 12): -0.4 °C
ΔTm at 10 µM ([3]; read-out: dTm 12): 2.9 °C
ΔTm at 10 µM ([4]; read-out: dTm 12): 2.2 °C

SMILES: CNc1ncc2cc(-c3cc(C(F)(F)F)ccc3Cl)c(=O)n(CCCCN)c2n1 [compound 9, 8-(4-Aminobutyl)-6-(2-chloro-5-(trifluoromethyl)phenyl)-2-(methylamino)pyrido[2,3-d]pyrimidin-7(8H)-one]
ΔTm at 10 µM ([1]; read-out: dTm 9): 0.6 °C
ΔTm at 10 µM ([2]; read-out: dTm 9): 0.1 °C
ΔTm at 10 µM ([3]; read-out: dTm 9): 0.1 °C
ΔTm at 10 µM ([4]; read-out: dTm 9): 0.6 °C

SMILES: CNc1ncc2cc(-c3cc(Cl)ccc3Cl)c(=O)n(CCCCN)c2n1 [compound 8, 8-(4-Aminobutyl)-6-(2,5-dichlorophenyl)-2-(methylamino)pyrido[2,3-d]pyrimidin-7(8H)-one]
ΔTm at 10 µM ([1]; read-out: dTm 8): 0.8 °C
ΔTm at 10 µM ([2]; read-out: dTm 8): 0.1 °C
ΔTm at 10 µM ([3]; read-out: dTm 8): 0.1 °C
ΔTm at 10 µM ([4]; read-out: dTm 8): 1.1 °C
